Assay results from ChEMBL document CHEMBL1129240, “Synthesis of acyclo-C-nucleosides in the imidazo[1,2-a]pyridine and pyrimidine series as antiviral agents” (J Med Chem, 1996).
≈ marks a conversion by molar mass, not a printed value.

Tests used:
[1] = Cytotoxic concentration required to reduce CEM cell viability by 50%; assay type: cell-based; conditions: human, CCRF-CEM (CEM) cells
[2] = tested on: Cytomegalovirus; assay: Minimum Inhibitory Concentration (MIC) tested for activity against Cytomegalovirus (CMV) using AD169 strain; assay type: functional; conditions: Human betaherpesvirus 5
[3] = tested on: Cytomegalovirus; assay: Minimum Inhibitory Concentration (MIC) tested for activity against Cytomegalovirus (CMV) using Davis strain; assay type: functional; conditions: Human betaherpesvirus 5
[4] = Cytotoxic concentration required to cause microscopically detectable alteration of normal cell morphology of E6SM cells; assay type: cell-based; conditions: human, read-out: CC50
[5] = Minimum cytotoxic concentration to reduce the HEL cell proliferation by 50%; assay type: cell-based; conditions: human, HEL cells; read-out: MCC
[6] = tested on: Human alphaherpesvirus 3; assay: Minimum Inhibition Concentration (MIC) for activity against Varicella-Zoster Virus(VZV) using OKA (TK+) strain; assay type: functional
[7] = tested on: Human alphaherpesvirus 3; assay: Minimum Inhibitory Concentration (MIC) tested for activity against Varicella-Zoster Virus(VZV) using YS(TK+) strain.; assay type: functional
[8] = tested on: Human alphaherpesvirus 3; assay: Minimum Inhibitory Concentration (MIC) tested for activity against Varicella-Zoster Virus(VZV) using YS/R (TK-) strain.; assay type: functional
[9] = Cytotoxic concentration required to cause microscopically detectable alteration of normal cell morphology of Vero cells; assay type: cell-based; conditions: chlorocebus sabaeus, read-out: CC50
[10] = tested on: Human alphaherpesvirus 3; assay: Minimum Inhibitory Concentration (MIC) tested for activity against Varicella-Zoster Virus(VZV) using 07/1 (TK-) strain.; assay type: functional
[11] = Cytotoxic concentration required to cause microscopically detectable alteration of normal cell morphology of HeLa cells; assay type: cell-based; conditions: human, read-out: CC50
[12] = tested on: Human alphaherpesvirus 3; assay: Minimum Inhibition Concentration (MIC) for activity against Varicella-Zoster Virus(VZV) using YS(TK+) strain.; assay type: functional
[13] = tested on: Human alphaherpesvirus 3; assay: Minimum Inhibition Concentration (MIC) for activity against Varicella-Zoster Virus(VZV) using YS/R (TK-) strain.; assay type: functional
[14] = tested on: Human alphaherpesvirus 3; assay: Minimum Inhibitory Concentration (MIC) for activity against Varicella-Zoster Virus(VZV) using OKA (TK+) strain; assay type: functional
[15] = tested on: Human alphaherpesvirus 3; assay: Minimum Inhibition Concentration (MIC) for activity against Varicella-Zoster Virus(VZV) using 07/1 (TK-) strain.; assay type: functional
[16] = Minimum cytotoxic concentration required to reduce human embryonic lung (HEL) cell proliferation by 50%; assay type: cell-based; conditions: human embryonic lung (HEL) cells, read-out: MCC
[17] = tested on: Cytomegalovirus; assay: Minimum Inhibition Concentration (MIC) for activity against Cytomegalovirus (CMV) using Davis strain; assay type: functional; conditions: Human betaherpesvirus 5

Compound | CC50 [1] | MIC [2] | MIC [3] | MCC [4] | CC50 [5] | MIC [6] | MIC [7] | MIC [8] | MCC [9] | MIC [10] | MCC [11] | MIC [12] | MIC [13] | MIC [14] | MIC [15] | CC50 [16] | MIC [17]
Cc1cccc2ncc(CSCC(C)O)n12 (stereo unspecified) | 27 µg/mL (≈ 114 µM) | > 10 µg/mL | > 10 µg/mL | 400 µg/mL | 90 µg/mL (≈ 381 µM) | 30 µg/mL (≈ 127 µM) | 20 µg/mL (≈ 84.6 µM) | 24 µg/mL (≈ 102 µM) | > 400 µg/mL | 24 µg/mL (≈ 102 µM) | 100 µg/mL | – | – | – | – | – | –
Nc1nc2c(ncn2COC(CO)CO)c(=O)[nH]1 [GANCICLOVIR] | – | 0.5 µg/mL (≈ 1.96 µM) | 0.5 µg/mL (≈ 1.96 µM) | > 100 µg/mL | – | – | – | – | – | – | – | – | – | – | – | – | –
Nc1ccn(C[C@@H](CO)OCP(=O)(O)O)c(=O)n1.O.O [CIDOFOVIR] | – | 0.05 µg/mL | 0.05 µg/mL | – | > 100 µg/mL | 0.04 µg/mL | – | – | – | – | – | 0.033 µg/mL | 0.004 µg/mL | – | – | – | –
Cc1cccc2ncc(CSCC(O)CO)n12 (stereo unspecified) | 45 µg/mL (≈ 178 µM) | > 10 µg/mL | 25 µg/mL (≈ 99.1 µM) | 400 µg/mL | 75 µg/mL (≈ 297 µM) | – | > 40 µg/mL | > 40 µg/mL | 400 µg/mL | > 40 µg/mL | > 100 µg/mL | – | – | > 40 µg/mL | – | – | –
Cc1cn([C@H]2C[C@H](N=[N+]=[N-])[C@@H](CO)O2)c(=O)[nH]c1=O [ZIDOVUDINE] | > 125 µg/mL | – | – | – | – | – | – | – | – | – | – | – | – | – | – | – | –
Cc1cccn2c(CSCCO)cnc12 | 9.5 µg/mL (≈ 42.7 µM) | 7 µg/mL (≈ 31.5 µM) | 6 µg/mL (≈ 27 µM) | 400 µg/mL | 85 µg/mL (≈ 382 µM) | – | 10 µg/mL (≈ 45 µM) | – | 400 µg/mL | 15 µg/mL (≈ 67.5 µM) | 40 µg/mL | – | > 10 µg/mL | 25 µg/mL (≈ 112 µM) | – | – | –
Cc1c(Br)cn2c(CSCCO)cnc2c1Br | 37 µg/mL (≈ 97.3 µM) | 20 µg/mL (≈ 52.6 µM) | 30 µg/mL (≈ 78.9 µM) | > 200 µg/mL | 50 µg/mL (≈ 132 µM) | – | > 40 µg/mL | 20 µg/mL (≈ 52.6 µM) | > 40 µg/mL | – | > 100 µg/mL | – | – | 35 µg/mL (≈ 92.1 µM) | 22 µg/mL (≈ 57.9 µM) | – | –
OCCCSCc1cnc2c(Cl)cc(C(F)(F)F)cn12 | 27 µg/mL (≈ 83.1 µM) | > 40 µg/mL | > 40 µg/mL | 100 µg/mL | > 100 µg/mL | – | – | > 40 µg/mL | > 100 µg/mL | > 40 µg/mL | 100 µg/mL | > 40 µg/mL | – | > 40 µg/mL | – | – | –
NC(=O)c1ncn([C@@H]2O[C@H](CO)[C@@H](O)[C@H]2O)n1 [RIBAVIRIN] | – | – | – | > 400 µg/mL | – | – | – | – | > 400 µg/mL | – | > 200 µg/mL | – | – | – | – | – | –
Cc1ccn2c(CSCCCO)cnc2c1 | 17 µg/mL (≈ 71.9 µM) | 30 µg/mL (≈ 127 µM) | 30 µg/mL (≈ 127 µM) | > 100 µg/mL | > 100 µg/mL | > 40 µg/mL | – | > 40 µg/mL | > 40 µg/mL | – | 40 µg/mL | > 40 µg/mL | – | – | > 40 µg/mL | – | –
CC(O)CSCc1cnc2ncccn12 (stereo unspecified) | > 100 µg/mL | > 40 µg/mL | > 40 µg/mL | > 400 µg/mL | > 100 µg/mL | – | > 40 µg/mL | – | > 400 µg/mL | > 40 µg/mL | 400 µg/mL | – | > 40 µg/mL | > 40 µg/mL | – | – | –
CCOC(=O)CSCc1cnc2cc(C)ccn12 | 37 µg/mL (≈ 140 µM) | 25 µg/mL (≈ 94.6 µM) | 23 µg/mL (≈ 87 µM) | 200 µg/mL | 80 µg/mL (≈ 303 µM) | – | > 40 µg/mL | > 40 µg/mL | > 200 µg/mL | > 40 µg/mL | > 100 µg/mL | – | – | > 40 µg/mL | – | – | –
Cc1c(Br)c(C)n2c(CSCCO)cnc2c1Br | 17 µg/mL (≈ 43.1 µM) | > 10 µg/mL | > 10 µg/mL | 100 µg/mL | 70 µg/mL (≈ 178 µM) | – | – | > 10 µg/mL | > 200 µg/mL | > 40 µg/mL | > 200 µg/mL | > 40 µg/mL | – | > 40 µg/mL | – | – | –
O=c1[nH]cnc2c1ncn2[C@H]1CC[C@@H](CO)O1 [DIDANOSINE] | > 100 µg/mL | – | – | – | – | – | – | – | – | – | – | – | – | – | – | – | –
c1ccc(CSCc2cnc3ncccn23)cc1 | 4.2 µg/mL (≈ 16.4 µM) | 2 µg/mL (≈ 7.83 µM) | 2 µg/mL (≈ 7.83 µM) | 100 µg/mL | 40 µg/mL (≈ 157 µM) | – | 2.4 µg/mL (≈ 9.4 µM) | – | 200 µg/mL | 5 µg/mL (≈ 19.6 µM) | 40 µg/mL | – | > 10 µg/mL | 8.8 µg/mL (≈ 34.5 µM) | – | – | –
Cc1ccn2c(CSCC(O)CO)cnc2c1 (stereo unspecified) | > 100 µg/mL | > 50 µg/mL | > 50 µg/mL | > 400 µg/mL | > 100 µg/mL | – | > 100 µg/mL | 50 µg/mL (≈ 198 µM) | > 400 µg/mL | – | 400 µg/mL | – | – | 100 µg/mL (≈ 396 µM) | – | – | –
COC(=O)c1nc2ccccn2c1CSCCO | 87 µg/mL (≈ 327 µM) | > 50 µg/mL | > 50 µg/mL | > 400 µg/mL | – | – | – | > 25 µg/mL | > 400 µg/mL | – | > 200 µg/mL | > 25 µg/mL | – | > 25 µg/mL | – | > 100 µg/mL | –
Cc1ccn2c(CSCC(C)O)cnc2c1 (stereo unspecified) | 60 µg/mL (≈ 254 µM) | > 50 µg/mL | – | > 400 µg/mL | > 100 µg/mL | – | – | 100 µg/mL (≈ 423 µM) | > 400 µg/mL | – | 400 µg/mL | > 100 µg/mL | – | > 100 µg/mL | – | – | > 50 µg/mL
Cc1cccc2ncc(CSCCO)n12 | 22 µg/mL (≈ 99 µM) | > 10 µg/mL | > 10 µg/mL | 200 µg/mL | 40 µg/mL (≈ 180 µM) | – | > 10 µg/mL | – | 200 µg/mL | > 10 µg/mL | 100 µg/mL | – | > 10 µg/mL | > 10 µg/mL | – | – | –
CCSCc1cnc2c(C)cccn12 | 4.1 µg/mL (≈ 19.9 µM) | 2 µg/mL (≈ 9.69 µM) | 2 µg/mL (≈ 9.69 µM) | 200 µg/mL | 35 µg/mL (≈ 170 µM) | – | 5 µg/mL (≈ 24.2 µM) | – | 400 µg/mL | 6.8 µg/mL (≈ 33 µM) | 10 µg/mL | – | > 10 µg/mL | 10 µg/mL (≈ 48.5 µM) | – | – | –
O=c1[nH]c(=O)n([C@H]2C[C@H](O)[C@@H](CO)O2)cc1/C=C/Br [BRIVUDINE] | – | – | – | > 400 µg/mL | > 50 µg/mL | 0.0009 µg/mL (≈ 0.0027 µM) | – | – | > 400 µg/mL | – | > 400 µg/mL | 0.002 µg/mL (≈ 0.006 µM) | > 20 µg/mL | – | > 50 µg/mL | – | –
Cc1c(Br)c(C)n2c(CSCc3ccccc3)cnc2c1Br | 35 µg/mL (≈ 79.5 µM) | 1.7 µg/mL (≈ 3.86 µM) | 4 µg/mL (≈ 9.09 µM) | > 40 µg/mL | > 100 µg/mL | > 40 µg/mL | – | – | > 40 µg/mL | – | > 100 µg/mL | > 40 µg/mL | 40 µg/mL (≈ 90.9 µM) | – | 40 µg/mL (≈ 90.9 µM) | – | –
Cc1cccc2ncc(CSCc3ccccc3)n12 | 9.9 µg/mL (≈ 36.9 µM) | – | – | 10 µg/mL | – | – | – | – | 40 µg/mL | – | 40 µg/mL | – | – | – | – | – | –
Nc1nc2c(ncn2COCCO)c(=O)[nH]1 [ACYCLOVIR] | – | – | – | > 400 µg/mL | > 100 µg/mL | – | – | – | – | – | – | – | – | – | – | – | –
